Laboratory results from patent US20220408731A1, “MODIFIED ANTIMICROBIAL PEPTIDES” (priority 2021, published 2022).
≈ marks a conversion by molar mass, not a printed value. Read-outs that look alike come from different tables or passages of the source. Bridge positions count the residues as written; N and C are the ends. Peptide text beside a SMILES is read from it.

Legend:
[1] = system: Colletotrichum gloeosporioides
B. cinerea = assay: Drop inoculation assay on detached Nicotiana benthamiana leaves (semi-in planta); assay type: in vivo, Botrytis cinerea; details: 48 h; for Reduction of gray mold disease symptoms: detached N. benthamiana leaves, no single concentration stated
[2] = unit from method, none in Table 19

| SMILES | MIC, Alternaria alternata (Alternaria alternata) [µM] | MIC, Cercospora sojina (Cercospora sojina) [µM] | MIC, Colletotrichum gloeosporioides [1] [µM] | MIC (μM) Botrytis cinerea (Botrytis cinerea) [µM] | MIC (μM) Fusarium graminearum (Fusarium graminearum) [µM] | Reduction of gray mold disease symptoms (B. cinerea) | MIC (μM) (SFM + 2 mM CaCl2) (Botrytis cinerea) [µM] | MIC (μM) (SFM + 100 mM KCl) (Botrytis cinerea) [µM] | MIC (μM) (SFM + 100 mM NaCl) (Botrytis cinerea) [µM] | MIC (μM) SFM (Botrytis cinerea) [µM] | MIC, Alternaria alternata (Alternaria alternata; [2]) [µM] | MIC, Cercospora sojina (Cercospora sojina; [2]) [µM] | MIC, Colletotrichum gloeosporioides [1, 2] [µM] | Gray mold symptoms, drop inoculation assay (B. cinerea; peptide at 1.5 μM and 3 μM) | Gray mold symptoms, drop inoculation assay (B. cinerea; peptide at 6 μM) |
| --- | --- | --- | --- | --- | --- | --- | --- | --- | --- | --- | --- | --- | --- | --- | --- |
| C[C@@H](O)[C@H](NC(=O)[C@H](CS)NC(=O)[C@H](Cc1ccccc1)NC(=O)[C@H](CS)NC(=O)[C@H](CCCNC(=N)N)NC(=O)[C@H](CCCNC(=N)N)NC(=O)[C@H](CCCNC(=N)N)NC(=O)[C@H](Cc1ccccc1)NC(=O)CNC(=O)[C@H](CCCNC(=N)N)NC(=O)[C@H](CS)NC(=O)[C@H](CCCNC(=N)N)NC(=O)CN)C(=O)N[C@H](C(=O)N[C@@H](Cc1c[nH]cn1)C(=O)N[C@@H](CS)C(N)=O)[C@@H](C)O [GMA4AC, reference compound] (H-GRCRGFRRRCFCTTHC-NH2) | >12 | >12 | >12 |  |  |  |  |  |  |  |  |  |  |  |  |
| C[C@@H](O)[C@H](NC(=O)[C@H](CS)NC(=O)[C@H](Cc1ccccc1)NC(=O)[C@H](CS)NC(=O)[C@H](CCCNC(=N)N)NC(=O)[C@H](CCCNC(=N)N)NC(=O)[C@H](CCCNC(=N)N)NC(=O)[C@H](Cc1ccccc1)NC(=O)CNC(=O)[C@H](CCCNC(=N)N)NC(=O)[C@H](CS)NC(=O)[C@H](CCCNC(=N)N)NC(=O)CN)C(=O)N[C@H](C(=O)N[C@@H](Cc1c[nH]cn1)C(=O)N[C@@H](CS)C(=O)O)[C@@H](C)O [GMA4AC, reference compound] (H-GRCRGFRRRCFCTTHC-OH; N-terminus assumed) |  |  |  | 6 (≈ 11.8 µg/mL) | 6 (≈ 11.8 µg/mL) |  |  |  |  |  |  |  |  |  |  |
| CC[C@H](C)[C@@H]1NC(=O)[C@H](CCCNC(=N)N)NC(=O)[C@H]([C@@H](C)O)NC(=O)[C@H](Cc2ccccc2)NC(=O)[C@H](Cc2c[nH]c3ccccc23)NC(=O)[C@H](Cc2ccccc2)NC(=O)[C@H](CCCNC(=N)N)NC(=O)[C@H](CCCNC(=N)N)NC(=O)[C@H](CC(C)C)NC(=O)[C@H](Cc2ccccc2)NC(=O)CNC(=O)[C@H](CCCCN)NC(=O)[C@@H](NC(=O)[C@H](CCCNC(=N)N)NC(=O)CNC(=O)CN)CSSC[C@@H](C(N)=O)NC1=O [GMA4C_V9] (H-GGRCKGFLRRFWFTRIC-NH2; disulfide 4-17; N-terminus assumed) |  |  |  |  |  | effective in reducing gray mold disease symptoms | 12 | 6 to 12 | 3 | 3 (≈ 6.3 µg/mL) | >12 | 6 (≈ 12.6 µg/mL) | >12 |  |  |
| CC[C@H](C)[C@@H]1NC(=O)[C@H](CCCNC(=N)N)NC(=O)[C@H]([C@@H](C)O)NC(=O)[C@H](Cc2c[nH]c3ccccc23)NC(=O)[C@H](Cc2ccc(O)cc2)NC(=O)[C@H](Cc2c[nH]c3ccccc23)NC(=O)[C@H](CCCNC(=N)N)NC(=O)[C@H](CCCNC(=N)N)NC(=O)[C@H](CCCNC(=N)N)NC(=O)[C@H](Cc2ccccc2)NC(=O)CNC(=O)[C@H](CCCCN)NC(=O)[C@@H](NC(=O)[C@H](CCCNC(=N)N)NC(=O)CNC(=O)CN)CSSC[C@@H](C(N)=O)NC1=O [GMA4C_V10] (H-GGRCKGFRRRWYWTRIC-NH2; disulfide 4-17; N-terminus assumed) |  |  |  |  |  | effective in reducing gray mold disease symptoms | 3 | 3 to 6 | 3 | 3 (≈ 6.6 µg/mL) | >12 | 6 (≈ 13.2 µg/mL) | >12 | more effective in reducing the symptoms of gray mold than GMA4C_V9 | completely abrogates gray mold symptoms |
| C[C@H](NC(=O)CN)C(=O)N[C@H]1CSSC[C@@H](C(N)=O)NC(=O)[C@H](CCCCN)NC(=O)[C@H](CCCCN)NC(=O)[C@H](Cc2ccc(O)cc2)NC(=O)[C@H](Cc2c[nH]c3ccccc23)NC(=O)[C@H](Cc2ccccc2)NC(=O)[C@H](Cc2c[nH]c3ccccc23)NC(=O)[C@H](C)NC(=O)[C@H](Cc2ccccc2)NC(=O)CNC(=O)[C@H](Cc2ccccc2)NC(=O)CNC(=O)[C@H](CCC(N)=O)NC(=O)[C@H](CCCNC(=N)N)NC(=O)[C@H](Cc2c[nH]cn2)NC1=O [GMA5CA_V3] (H-GACHRQGFGFAWFWYKKC-NH2; disulfide 3-18; N-terminus assumed) |  |  |  |  |  |  | >12 | >12 | >12 | 3 (≈ 6.57 µg/mL) | 3 (≈ 6.57 µg/mL) | 6 (≈ 13.1 µg/mL) | >12 |  |  |
| C[C@H](NC(=O)CN)C(=O)N[C@H]1CSSC[C@@H](C(N)=O)NC(=O)[C@H](CCCCN)NC(=O)[C@H](CCCCN)NC(=O)[C@H](Cc2ccc(O)cc2)NC(=O)[C@H](Cc2ccccc2)NC(=O)[C@H](Cc2ccccc2)NC(=O)[C@H](Cc2ccccc2)NC(=O)[C@H](C)NC(=O)[C@H](Cc2ccccc2)NC(=O)CNC(=O)[C@H](Cc2ccccc2)NC(=O)CNC(=O)[C@H](CCC(N)=O)NC(=O)[C@H](CCCNC(=N)N)NC(=O)[C@H](Cc2c[nH]cn2)NC1=O [GMA5CA_V4] (H-GACHRQGFGFAFFFYKKC-NH2; disulfide 3-18; N-terminus assumed) |  |  |  |  |  |  | >12 | >12 | >12 | 3 (≈ 6.33 µg/mL) | 3 (≈ 6.33 µg/mL) | 6 (≈ 12.7 µg/mL) | >12 |  |  |
